The source of these data is patent US20250360118A1, “TREATMENT OF FIBROTIC DISORDERS WITH METABOTROPIC GLUTAMATE RECEPTOR 5 ANTAGONISTS OR/AND CANNABINOID RECEPTOR 1 ANTAGONISTS” (THE UNITED STATES OF AMERICA,AS REPRESENTED BY THE …, priority 2022, published 2025).

Entries after “also recorded” stand apart in the source; their conditions may differ.

Holding throughout (format): in vivo, mice
Experiment [1] deals with bleomycin-induced PF mouse model. As to the kind of experiment: Survival in bleomycin-induced pulmonary fibrosis mouse model. On the procedure: (§1) The compounds were administered by oral gavage once daily as indicated. The vehicle was a 1:1:18 ratio of DMSO:Tween® 80:saline. Oral formulations were applied at 0.3 and 3 mg/mL concentrations to achieve doses of 3 and 30 mg/kg, respectively.
(§2) All animal procedures were conducted in accordance with the rules and regulations of the Institutional Animal Care and Use Committee of the National Institutes of Alcohol Abuse and Alcoholism (NIAAA), under the protocols of LPS-GK1. Thirteen-week-old male C57BL/6J mice were obtained from The Jackson Laboratory (Bar Harbor, Maine, USA). Grm5^−/− (mGluR5 KO) mice (JAX 003121) were purchased from The Jackson Laboratory. […] (CB1R KO) mice were generated as described in Zimmer et al., Proc. Natl. Acad. Sci. USA, 96:5780-5785 (1999). Cnr1^−/− and Grm5^−/− mice were on a C57BL/6J genetic background. Both Grm5^−/− and Cnr1^−/− mice colonies were maintained with heterozygous breeding. Mice were housed individually under a 12-hour light/dark cycle and fed a standard diet, ad libitum (Teklad NIH-31; Envigo, Huntingdon, UK).
A bleomycin-induced pulmonary fibrosis model by delivery of bleomycin via oropharyngeal aspiration was generated as described in Park et al., Am. J. Respir. Cell Mol. Biol., 62(2):178-190 (2020). Briefly, bleomycin was delivered to mice anesthetized with ketamine/xylazine through the oropharynx at 1 U/kg dose using a sterile 100 μL pipette during inspiration at a volume of 100 μL/50 g body weight. Sterile saline was used as vehicle and applied to the control groups. The animals were then allowed to recover from the anesthesia.
Survival curves were plotted using GraphPad Prism 9 software. Survival was analyzed by using Log-rank (Mantel-Cox) test for assessing the statistical difference between animal groups.

For experiment [2] the test system is unchanged. As to the kind of experiment: Body weight in bleomycin-induced PF mouse model. Conditions: basimglurant 3 mg/kg oral, days 8 to 28 after single bleomycin administration, vs vehicle. On the procedure:
as §1, §2
A bleomycin-induced pulmonary fibrosis model by delivery of bleomycin via oropharyngeal aspiration was generated as described in Park et al., Am. J. Respir. Cell Mol. Biol., 62(2):178-190 (2020). […]

Experiment [3] shares this test system. As to the kind of experiment: Lung function measurements (FlexiVent) in bleomycin-induced PF mouse model. The method, then: as §1
as §2, with “Mice were housed individually under a 12-hour light/dark cycle and fed a standard diet, ad libitum (Teklad NIH-31; Envigo, Huntingdon, UK).” left out
Respiratory system mechanics measurements were performed using the FlexiVent FX system (SCIREQ Inc., Montreal, Canada), which is equipped with an FX1 module and negative pressure forced expiration (NPFE) extension for mice. […] Pressure-volume (PV) curve, airway resistance, tissue damping (G), tissue elastance (H), forced expiratory volume per 0.1 seconds (FEV 0.1), forced vital capacity (FVC), inspiratory capacity (IC), and inhaled air amount (A) parameters were measured. […]

The test system is the same in experiment [4]. As to the kind of experiment: Lung hydroxyproline (fibrosis marker) in bleomycin-induced PF mouse model. Conditions: fenobam 30 mg/kg daily oral for 14 days vs vehicle, bleomycin 1 U/kg. The method, then:
as §1
as §2, with “UK). […]” for “UK).”
The degree of lung fibrosis was quantified biochemically by measuring the hydroxyproline content of lung extracts using liquid chromatography/tandem mass spectrometry (LC-MS/MS) as described in Park et al., Am. […]

[5] abbreviates: basimglurant 3 mg/kg oral, days 8 to 28 after single bleomycin administration, vs vehicle.

For `Cc1nc(C#Cc2ccnc(Cl)c2)c(C)n1-c1ccc(OC(F)(F)F)cc1` [CTEP, 2-chloro-4-((2,5-dimethyl-1-(4-(trifluoromethoxy)phenyl)-1H-imidazol-4-yl)ethynyl)pyridine], in experiment [1] (CTEP 3 mg/kg daily oral for 28 days after single oropharyngeal bleomycin 1 U/kg, vehicle-treated mice 50%), the survival rate is 100%. Further, the “survival (in words)” value in experiment [1] (CTEP 3 mg/kg daily oral gavage vs vehicle, bleomycin 1 U/kg) is recorded as “significantly improved survival; also recorded: prevented mortality”.

On to `Cc1nc(C#Cc2ccnc(Cl)c2)c(C)n1-c1ccc(F)cc1` [basimglurant], for which the body weight loss entry in experiment [2] is given as “reduced body weight loss”. Also, the pulmonary tissue stiffness result in experiment [3] (setting [5]) is reported as “reduced pulmonary tissue stiffness”. Besides, in experiment [1] (setting [5]), the “survival rate (in words)” value was “increased survival rate”.

`CN1CC(=O)NC1=NC(=O)Nc1cccc(Cl)c1` [fenobam]: the “decline in pulmonary function parameter: forced expiratory volume (FEV) at 0.1 sec. (air flow)” value in experiment [3] (fenobam 30 mg/kg daily oral for 14 days vs vehicle, bleomycin 1 U/kg) is reported as “significantly attenuated”. Further, the “fibrosis as measured by hydroxyproline level in lungs” value in experiment [4] was “significantly attenuated fibrosis; also recorded: attenuated pulmonary fibrosis”.
